Laboratory results: patent US20220154204A1, “ENHANCING DROUGHT, SALINITY AND COLD TOLERANCE IN PLANTS AND TREES” (The Regents of the University of California, priority 2019, published 2022)

Key:
OST1/SnRK2.6 [1] = assay: In vivo Ser-171 phosphorylation of OST1/SnRK2.6-GFP in mesophyll cell protoplasts by LC-MS/MS; format: cell-based, Arabidopsis; details: 20 μM ABA for 15 min vs control
Experimental: 30 μg GST-OST1/SnRK2.6(D140A) and 2.5 μg GST-M3Kδ1 kinase domain were incubated in phosphorylation buffer (50 mM Tris-HCl pH 7.5, 10 mM MgCl2, 0.1% Triton X-100, and 1 mM DTT) with 1 mM ATP for 2 hr at room temperature. Proteins were precipitated by acetone precipitation and dissolved in SDS-PAGE loading buffer. After SDS-PAGE and CBB staining, protein bands of GST-OST1/SnRK2.6(D140A) were excised and analyzed by LC-MS/MS^17. For in vivo Ser-171 phosphorylation, OST1/SnRK2.6-GFP was transiently expressed in Arabidopsis mesophyll cell protoplasts. The protoplasts were incubated with or without 20 μM ABA for 15 min, and OST1/SnRK2.6 proteins were purified by immunoprecipitation using anti-GFP antibodies. After SDS-PAGE and CBB staining, OST1/SnRK2.6-GFP bands were excised and analyzed by LC-MS/MS^17
a, The sequence of identified phosphorylated peptide by mass spectrometry. OST1/SnRK2.6-GFP was expressed in Arabidopsis mesophyll cell protoplasts and purified by immunoprecipitation with GFP antibodies before or after 20 μM ABA treatment for 15 min. S(+79.97) indicates phosphorylated serine residues. Values (Control and ABA) indicate normalized peak areas for phosphorylated peptides. The phosphorylated peptide was not detected in the control sample.

SLAC1 = assay: Two-electrode voltage clamp recordings of SLAC1 currents in Xenopus oocytes; format: cell-based, Arabidopsis; details: Xenopus oocytes co-injected with PYL9/RCAR1, ABI1, OST1/SnRK2.6, SLAC1 with or without M3Ks, 50 μM ABA
Text: The PCR amplified cDNA fragments of OST1, SLAC1, PYL9/RCAR1, ABI1, M3Kδ1, M3Kδ6 and M3Kδ7 were cloned into the oocyte expression vector pNB1 by using an advanced uracil-excision based cloning strategy as previously described^60. The mutant isoforms OST1-S171A, M3Kδ6-K775W and M3Kδ7-K740W were generated using the Quikchange Site-Directed Mutagenesis kit (Agilent Technologies). Linearized plasmids were used to generate cRNAs via the mMESSAGE mMACHINE® T7 kit (Thermo Fisher Scientific, Catalog number: AM1344). […] Steady state currents were recorded with 3 second voltage pulses ranging from +40 mV to −120 mV in −20 mV decrements, followed by a “tail” voltage of −120 mV and the holding potential was kept at 0 mV.
SLAC1-mediated currents in oocytes vary showing either time-dependent relaxation or more instantaneous currents when using a chloride bath solution^61,62. […] To avoid time-of-measurement and inter-batch dependence in the data, H2O-injected control and other indicated controls were included in each batch of oocytes and control experiments were recorded intermittently with the investigated conditions.
a and b, In vitro reconstitution of ABA-induced OST1/SnRK2 activation without M3Kδ6 (a) or with M3Kδ6 (b). […] Phosphorylation of AKS1 is detected by binding of 14-3-3Phi (At1g35160) to the phosphorylated AKS1 protein^15. […]

S-type anion channels = assay: Patch-clamp analyses of S-type anion channel currents in guard cell protoplasts; format: cell-based, Arabidopsis; details: 10 μM, guard cells of wildtype (Col-0) and HsMYO control line
Experimental: Guard cell protoplasts from 4 to 6 week-old Arabidopsis plants were prepared^24,33 ABA-activated S-type anion channel current recordings were carried out by using an Axon 200A amplifier (Axon instruments) and a Digidata 1440A low-noise data acquisition system. Epidermal tissues were isolated from one or two rosette leaves and collected using a nylon mesh (100-μm pore size). […]
S-type anion currents in guard cell protoplasts were recorded using the whole-cell patch-clamp technique^24,33. […]
a, Leaves from m3k amiRNAi and the control amiRNA-HsMYO line (expressing an amiRNA targeting human myosin 2), which has no target gene in Arabidopsis plants were analyzed in time-resolved stomatal conductance analyses in which 1 μM ABA was added to the transpiration stream via the petiole (as described in e.g., Ceciliato, P. et al. Plant Methods 15, doi:10.1186/s13007-019-0423-y (2019)) as indicted by the red arrowhead (n=3 leaves from 3 independent plants per genotype, +/−s.d.). b, Normalized relative stomatal conductance to the first data point shown in (a). c-h, ABA-activated S-type anion channel currents were investigated by patch-clamp analyses using guard cell protoplasts from the wildtype parent Col-0 (c, d), the HsMYO amiRNA control line (e, f), and the m3k amiRNA line (g, h). […]

OST1/SnRK2.6 [2] = biological target: T1, OST1/SnRK2.6 (Arabidopsis thaliana, UniProt Q940H6); assay: In vitro phosphorylation assay of CIAP-dephosphorylated GST-OST1/SnRK2.6 with other protein kinases; format: biochemical; details: GST-OST1/SnRK2.6 dephosphorylated by CIAP, [γ-32P]-ATP
T1 construct: made in house; host or cells: E. coli
T1 sequence (Q940H6 1-362): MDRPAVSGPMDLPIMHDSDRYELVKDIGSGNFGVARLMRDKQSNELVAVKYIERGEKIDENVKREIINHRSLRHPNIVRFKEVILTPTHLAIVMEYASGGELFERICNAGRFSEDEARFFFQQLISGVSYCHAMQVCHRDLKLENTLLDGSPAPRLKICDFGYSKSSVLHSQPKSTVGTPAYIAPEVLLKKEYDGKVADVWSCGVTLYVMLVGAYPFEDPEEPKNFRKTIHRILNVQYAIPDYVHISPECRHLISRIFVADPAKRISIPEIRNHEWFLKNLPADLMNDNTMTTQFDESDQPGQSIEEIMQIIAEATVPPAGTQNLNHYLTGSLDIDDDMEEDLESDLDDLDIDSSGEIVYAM
Experimental: We investigated phosphorylation of purified recombinant GST-tagged OST1/SnRK2.6 protein kinase after dephosphorylation in vitro. To test whether OST1/SnRK2.6 could be re-activated by autophosphorylation, after dephosphorylation, the GST-OST1/SnRK2.6 protein bound on glutathione sepharose 4B resin was incubated with calf intestinal alkaline phosphatase (CIAP), and [γ-^32P]-ATP was added to the reaction after wash out of CIAP. […] Therefore, another unknown protein kinase may be required for reversible ABA signal transduction.
10 μg GST-OST1/SnRK2.6 proteins were bound to glutathione sepharose 4B beads and incubated with 30 U CIAP for 2 hr at room temperature. […]
a, Seeds of amiR-HsMYO wild-type (control line) or amiR-ax1117 mutant were sowed on ½ MS medium containing 2 μM ABA, or 0.02% EtOH as control, for germination assays. Representative images showing seed germination after 6 days. b, The percentage of seedlings showing green cotyledons was analyzed. […] In-gel kinase assays were performed using histone type III-S as a substrate. e, SnRK2 band intensities as shown in (d) were measured using ImageJ, n=3 experiments, error bars show +/−s.e.m. f, Recombinant GST-OST1/SnRK2.6 protein was dephosphorylated by alkaline phosphatase in vitro and used for in vitro phosphorylation assays after incubation with CPK6, CPK23 or MPK12 protein kinases. […]

Compound	phosphorylation of OST1 Ser171 in mesophyll cells (OST1/SnRK2.6 [1])	ABA-dependent SLAC1 anion channel activation (SLAC1)	activation of S-type anion currents in guard cells (S-type anion channels)	phosphorylation of OST1/SnRK2.6 after dephosphorylation (OST1/SnRK2.6 [2])
CC1=CC(=O)CC(C)(C)[C@@]1(O)/C=C/C(C)=C\C(=O)O [ABA, abscisic acid]	clearly phosphorylated	could activate SLAC1 in oocytes only in the presence of low concentrations of either M3Kδ1, M3Kδ6 or M3Kδ7 mRNAs	typical ABA activation of S-type anion currents	–
CPK23: calcium-dependent protein kinase of ABA signalling	–	–	–	did not phosphorylate
